Assay results: patent publication US20240383913A1, “THIOPHENE RING COMPOUND, PREPARATION METHOD THEREFOR AND APPLICATION THEREOF” (CENTER FOR EXCELLENCE IN MOLECULAR CELL SCIENCE, CHINESE …, priority 2021, published 2024)
Where two headings read alike, the source gives them in different places.

Experiments:
dopamine D2 receptors [1] = target: T1, dopamine D2 receptors (Homo sapiens (Human), UniProt P14416); assay: Dopamine D2 receptor Gαi1 BRET (G protein trimer dissociation); format: cell-based; details: for Emax: read-out: Gαi1 BRET (Emax %);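 for all read-outs here: transfected cells co-expressing D2 receptor, Gαi1-Rluc, Gβ3 and Gγ9-GFP, BRET with coelenterazine 400a at 5 µM read as G protein trimer dissociation, graded drug concentrations in duplicate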
Experimental: (§1) To examine the downstream G protein signaling pathway mediated by dopamine D2 receptors, on the first day, a 6 cm culture dish was used for transfection with 1 μg of dopamine D2 receptors, 1 μg of Gαi1 containing a C-terminal seaweed luciferase (Gαi1-Rluc), 1 μg of Gβ3, 1 μg of Gγ9 containing C-terminal green fluorescent protein (Gγ9-GFP), and 16 μL of PEI. At the same time, in order to examine the downstream β-arrestin2 signaling pathway mediated by dopamine D2 receptors, on the first day, a 6 cm culture dish was used for transfection with 500 μg of dopamine D2 receptors containing C-terminal seaweed luciferase (D2-Rluc), 500 μg of G protein-coupled receptor kinase 2 (GRK2), 2500 μg of β-arrestin2 containing N-terminal green fluorescent protein (GFP2-ARRB2) mixed with 14 μL of PEI. The next day, the confluent cells of a 6 cm culture dish were digested and reseeded into a 96-well plate with 100 μL of culture medium added to each well. On the third day, the drugs were added for test. The 96-well plate was taken out from the cell incubator to decant the culture medium, 40 μL of the substrate coelenterazine 400a (final concentration of 5 μM) was added to each well, and then 20 μL of different drugs were added sequentially from left to right to ensure that the final concentration of the drug decreased gradually from bottom to top, with two replicates per treatment. Finally, the prepared samples were loaded on machine for test. The machine readout value reflected the recruitment of β-arrestin2 to the membrane or the dissociation of G protein trimer. The former indicated the degree of activation of the β-arrestin2 signaling pathway downstream of the dopamine D2 receptors, and the latter indicated the degree of activation of the G protein signaling pathway downstream of the dopamine D2 receptors.

5-HT2A receptor [2] = target: T2, 5-HT2A receptor (Homo sapiens (Human), UniProt P28223); assay: 5-HT2A receptor β-arrestin2 BRET (recruitment); format: cell-based;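 note: cells co-expressing Rluc-tagged 5-HT2A receptor, GRK2 and GFP2-tagged β-arrestin2, read by BRET with coelenterazine 400a (5 µM) across graded drug concentrations in duplicate, signal reflecting β-arrestin2 membrane recruitment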
Experimental: (§2) To examine the downstream G protein signaling pathway mediated by 5-HT2A receptors, on the first day, a 6 cm culture dish was used for transfection with 1 μg of 5-HT2A receptors, 1 μg of Gαq containing C-terminal seaweed luciferase (Gαq-Rluc), 1 μg of Gβ3, 1 μg of Gγ9 containing C-terminal green fluorescent protein (Gγ9-GFP), and 16 μL of PEI. At the same time, in order to examine the downstream β-arrestin2 signaling pathway mediated by 5-HT2A receptors, on the first day, a 6 cm culture dish was used for transfection with 500 μg of 5-HT2A receptors containing C-terminal seaweed luciferase (5-HT2A-Rluc), 500 μg of G protein-coupled receptor kinase 2 (GRK2), 2500 μg of β-arrestin2 containing N-terminal green fluorescent protein (GFP2-ARRB2), and 14 μL of PEI. The next day, the confluent cells of a 6 cm culture dish were digested and reseeded into a 96-well plate with 100 μL of culture medium was added to each well. On the third day, the drugs were added for test. The 96-well plate was taken out from the cell incubator to decant the culture medium, 40 μL of the substrate coelenterazine 400a (final concentration of 5 μM) was added to each well, and then 20 μL of different drugs were added sequentially from left to right to ensure that the final concentration of the drug decreased gradually from bottom to top, with two replicates per treatment. Finally, the prepared samples were loaded on machine for test. The machine readout value reflected the recruitment of β-arrestin2 to the membrane or the dissociation of G protein trimer. The former indicated the degree of activation of the β-arrestin2 signaling pathway downstream of the 5-HT2A receptors, and the latter indicated the degree of activation of the G protein signaling pathway downstream of the 5-HT2A receptors.

5-HT1A receptor [3] = target: T3, 5-HT1A receptor (Homo sapiens (Human), UniProt P08908); assay: Affinity for 5-HT1A receptors, radioligand competition with [3H]-LSD; format: binding;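 note: membranes from cells transiently transfected with 5-HT1A receptor, bound [3H]-LSD displaced by compound at 10^-9 to 10^-5 M, 2 h incubation at room temperature in the dark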
Experimental: (§3) The affinity of the compounds of the present disclosure for the 5-HTIA receptors was determined by the method of radioligand competition experiment. In the first step, a cell membrane component containing specific 5-HTIA receptor was prepared. A 10 cm culture dish was used for transfection with 10 ng of the 5-HTIA receptor and 40 μL of PEI. After 48 hours, the 10 cm culture dish was taken out from the cell incubator and the cultured cells had expressed the 5-HTIA receptor. A vacuum pump was used to suck off the culture medium, 3 mL of lysis buffer was added to each culture dish, and the cells were placed in a 4° C. cold room for 10 minutes. After the cells were detached, the cells were transferred to a 15 mL centrifuge tube and centrifuged at 1500 rpm for 5 minutes at 4° C., and the supernatant was discarded. The cell pellet was transferred to a tissue homogenizer, and 3 mL of lysis buffer was added and fully ground until the cells were broken. Then, cell suspension was equally aliquoted into several EP tubes, centrifuged at 12000 rpm for 5 minutes at 4° C., and the supernatant was discarded. The precipitate was the cell membrane component containing the 5-HT1A receptor. […] First, a standard binding buffer was added to the cell membrane component containing the 5-HT1A receptor, and the cell membrane was disrupted and resuspended with an electric tissue homogenizer. 30 μL of membrane protein suspension was added to each well of a 96-well plate. Then, 30 μL of different drugs were added to the 96-well plate sequentially from bottom to top to ensure that the final drug concentrations were 10^−5 M, 10^−6 M, 10^−7 M, 10^−8 M, 10^−9 M, and 0 M, with two replicates per treatment. Next, 30 μL of [3H]-LSD was added to each well of the 96-well plate. The plate was incubated for 2 hours at room temperature in the dark. Detection was conducted. The machine readout value reflected the amount of [3H]-LSD bound on the membrane, and after further data processing, the affinity Ki values of different compounds for the 5-HTIA receptor were obtained. To examine the downstream G protein signaling pathway mediated by 5-HTIA receptors, on the first day, a 6 cm culture dish was used for transfection with 1 μg of 5-HTIA receptors, 1 μg of Gαi1 containing C-terminal seaweed luciferase (Gαi1-Rluc), 1 μg of Gβ3, 1 μg of Gγ9 containing C-terminal green fluorescent protein (Gγ9-GFP), and 16 μL of PEI. The next day, the confluent cells of a 6 cm culture dish were digested and reseeded into a 96-well plate with 100 μL of culture medium was added to each well. On the third day, the drugs were added for test. The 96-well plate was taken out from the cell incubator to decant the culture medium, 40 μL of the substrate coelenterazine 400a (final concentration of 5 μM) was added to each well, and then 20 μL of different drugs were added sequentially from left to right to ensure that the final concentration of the drug decreased gradually from bottom to top, with two replicates per treatment. Finally, the prepared samples were loaded on machine for test. The machine readout value reflected the dissociation of G protein trimer, and thereby indicated the degree of activation of the G protein signaling pathway downstream of the 5-HTIA receptors.

5-HT2A receptor [4] = target: T2, 5-HT2A receptor; assay: Affinity for 5-HT2A receptors, radioligand competition with [3H]-ketanserin; format: binding; details: 293T membrane transiently expressing 5-HT2A
Experimental: The affinity of the compounds of the present disclosure for the 5-HT2A receptors was determined by the method of radioligand competition experiment. In the first step, a cell membrane component containing specific 5-HT2A receptor was prepared. A 10 cm dish was used for transfection with 10 ng of the 5-HT2A receptor and 40 μL of PEI. After 48 hours, the 10 cm dish was taken out from the cell incubator and the cultured cells had expressed the 5-HT2A receptor. A vacuum pump was used to suck off the culture medium, 3 mL of lysis buffer was added to each culture dish, and the cells were placed in a 4° C. cold room for 10 minutes. After the cells were detached, the cells were transferred to a 15 mL centrifuge tube and centrifuged at 1500 rpm for 5 minutes at 4° C., and the supernatant was discarded. The cell pellet was transferred to a tissue homogenizer, and 3 mL of lysis buffer was added and fully ground until the cells were broken. Then, cell suspension was equally aliquoted into several EP tubes, centrifuged at 12000 rpm for 5 minutes at 4° C., and the supernatant was discarded. The precipitate was the cell membrane component containing the 5-HT2A receptor. […] First, a standard binding buffer was added to the cell membrane component containing the 5-HT2A receptor, and the cell membrane was disrupted and resuspended with an electric tissue homogenizer. 30 μL of membrane protein suspension was added to each well of a 96-well plate. Then, 30 μL of different drugs were added to the 96-well plate sequentially from bottom to top to ensure that the final drug concentrations were 10^−5 M, 10^−6 M, 10^−7 M, 10^−8 M, 10^−9 M, and 0 M, with two replicates per treatment. Next, 30 μL of [3H]-ketanserin was added to each well of the 96-well plate. The plate was incubated for 2 hours at room temperature in the dark. Detection was conducted. The machine readout value reflected the amount of [3H]-ketanserin bound on the membrane, and after further data processing, the affinity Ki values of different compounds for the 5-HT2A receptor were obtained.

dopamine D2 receptors [5] = target: T1, dopamine D2 receptors; assay: Affinity for dopamine D2 receptors, radioligand competition with [3H]-Methylspiperone; format: binding; details: 293T membrane transiently expressing D2
Experimental: The affinity of the compounds of the present disclosure for the dopamine D2 receptors was determined by the method of radioligand competition experiment. In the first step, a cell membrane component containing specific dopamine D2 receptors was prepared. A 10 cm culture dish was used for transfection with 10 ng of the dopamine D2 receptors and 40 μL of polyethylenimine (PEI hereafter). After 48 hours, the 10 cm culture dish was taken out from the cell culture incubator and the cultured cells had expressed the dopamine D2 receptors. A vacuum pump was used to suck off the culture medium, 3 mL of lysis buffer was added to each culture dish, and the cells were placed in a 4° C. cold room for 10 minutes. After the cells were detached, the cells were transferred to a 15 mL centrifuge tube and centrifuged at 1500 rpm for 5 minutes at 4° C., and the supernatant was discarded. The cell pellet was transferred to a tissue homogenizer, and 3 mL of lysis buffer was added and fully ground until the cells were broken. Then, cell suspension was equally aliquoted into several EP tubes, centrifuged at 12000 rpm for 5 minutes at 4° C., and the supernatant was discarded. The precipitate was the cell membrane component containing the dopamine D2 receptors. […] First, a standard binding buffer was added to the cell membrane component containing the dopamine D2 receptors, and the cell membrane was disrupted and resuspended with an electric tissue homogenizer. 30 μL of membrane protein suspension was added to each well of a 96-well plate. Then, 30 μL of different drugs were added to the 96-well plate sequentially from bottom to top to ensure that the final drug concentrations were 10^−5 M, 10^−6 M, 10^−7 M, 10^−8 M, 10^−9 M, and 0 M, with two replicates per treatment. Next, 30 μL of [3H]-Methylspiperone was added to each well of the 96-well plate. The plate was incubated for 2 hours at room temperature in the dark. Detection was conducted. The machine readout value reflected the amount of [3H]-Methylspiperone bound on the membrane, and after further data processing, the affinity Ki values of different compounds for the dopamine D2 receptors were obtained.

dopamine D2 receptors [6] = target: T1, dopamine D2 receptors; assay: Dopamine D2 receptor β-arrestin2 BRET (recruitment); format: cell-based; details: for Emax: read-out: β-arrestin2 BRET (Emax %);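 for all read-outs here: cells co-expressing Rluc-fused D2 receptor, GRK2 and GFP2-fused β-arrestin2, BRET read with coelenterazine 400a after adding drug over a concentration series, in duplicate wells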
Experimental: as §1

5-HT2A receptor [7] = target: T2, 5-HT2A receptor; assay: 5-HT2A receptor Gαq BRET (G protein trimer dissociation); format: cell-based; details: for Emax: read-out: Gαq BRET (Emax %);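 for all read-outs here: cells transfected with 5-HT2A receptor, Gαq-Rluc, Gβ3 and Gγ9-GFP, BRET read with coelenterazine 400a (5 µM) across a compound dilution series in duplicate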
Experimental: as §2

5-HT1A receptor [8] = target: T3, 5-HT1A receptor; assay: 5-HT1A receptor Gαi1 BRET (G protein trimer dissociation); format: cell-based;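 note: cells transiently co-expressing 5-HT1A receptor, luciferase-tagged Gαi1, Gβ3 and GFP-tagged Gγ9, seeded in 96-well plates for BRET measurement of G protein signaling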
Experimental: as §3

[9] = D2 receptor, G protein pathway, read-out: Gαi1 BRET EC50
[10] = 5-HT2A receptor, β-arrestin2 pathway
[11] = 5-HT2A receptor, β-arrestin2 pathway, read-out: β-arrestin2 BRET EC50
[12] = 293T membrane transiently expressing 5-HT1A, [3H]-LSD, read-out: 5-HT1A affinity Ki
[13] = D2 receptor, β-arrestin2 pathway, read-out: β-arrestin2 BRET EC50
[14] = 5-HT2A receptor, G protein pathway, read-out: Gαq BRET EC50
[15] = 5-HT1A receptor, G protein pathway
[16] = 5-HT1A receptor, G protein pathway, read-out: Gαi1 BRET EC50

T1 sequence (P14416 whole entry): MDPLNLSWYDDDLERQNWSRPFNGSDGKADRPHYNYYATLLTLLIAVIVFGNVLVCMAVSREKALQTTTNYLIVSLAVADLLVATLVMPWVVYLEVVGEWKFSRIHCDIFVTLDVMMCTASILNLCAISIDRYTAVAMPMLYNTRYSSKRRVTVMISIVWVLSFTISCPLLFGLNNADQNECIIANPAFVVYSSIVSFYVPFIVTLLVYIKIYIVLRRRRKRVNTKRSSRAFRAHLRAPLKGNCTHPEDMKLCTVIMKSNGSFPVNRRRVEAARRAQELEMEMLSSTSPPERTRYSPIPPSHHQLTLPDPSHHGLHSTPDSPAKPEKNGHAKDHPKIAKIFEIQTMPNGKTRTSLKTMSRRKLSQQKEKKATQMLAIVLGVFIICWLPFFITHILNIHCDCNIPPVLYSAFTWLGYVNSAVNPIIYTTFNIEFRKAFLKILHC
T3 sequence (P08908 whole entry): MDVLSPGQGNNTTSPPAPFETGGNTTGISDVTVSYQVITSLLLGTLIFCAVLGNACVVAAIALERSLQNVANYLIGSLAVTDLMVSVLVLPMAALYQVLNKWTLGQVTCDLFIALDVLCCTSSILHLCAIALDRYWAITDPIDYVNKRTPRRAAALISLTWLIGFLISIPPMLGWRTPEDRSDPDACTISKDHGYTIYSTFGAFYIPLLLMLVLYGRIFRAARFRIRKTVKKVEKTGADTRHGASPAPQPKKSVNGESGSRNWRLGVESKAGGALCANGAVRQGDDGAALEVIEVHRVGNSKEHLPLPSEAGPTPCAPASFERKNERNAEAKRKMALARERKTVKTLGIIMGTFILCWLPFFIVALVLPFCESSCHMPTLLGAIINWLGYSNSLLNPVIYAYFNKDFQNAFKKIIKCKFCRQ
T2 sequence (P28223 whole entry): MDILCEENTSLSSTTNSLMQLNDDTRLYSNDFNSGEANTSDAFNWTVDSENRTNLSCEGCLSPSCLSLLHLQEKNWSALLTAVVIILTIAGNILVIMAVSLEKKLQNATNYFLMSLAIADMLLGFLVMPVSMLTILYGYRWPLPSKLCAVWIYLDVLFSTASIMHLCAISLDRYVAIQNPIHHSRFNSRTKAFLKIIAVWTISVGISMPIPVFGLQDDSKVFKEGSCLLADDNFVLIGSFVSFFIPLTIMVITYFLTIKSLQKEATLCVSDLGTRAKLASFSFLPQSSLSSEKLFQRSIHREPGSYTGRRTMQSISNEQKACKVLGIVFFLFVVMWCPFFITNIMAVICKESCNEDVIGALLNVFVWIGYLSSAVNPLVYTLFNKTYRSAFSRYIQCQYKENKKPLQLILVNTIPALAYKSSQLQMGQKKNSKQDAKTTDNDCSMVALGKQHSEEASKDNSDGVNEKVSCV

## O=C1c2ccccc2CN1CCCCN1CCN2c3cccc4scc(c34)CC2C1 (stereo not drawn) [Compound I-22, 2-(4-(6a,7,9,10-Tetrahydropyrazino[1,2-a]Thieno [4,3,2-De]Quinolin-8 (6H)-Yl)Butyl) Isoindolin-1-One]
Dopamine D2 receptors [1]; [9]
  EC50: 161 nM
Dopamine D2 receptors [1]
  Emax: 37%
5-HT2A receptor [2]; [10]
  Emax: 64.6%
5-HT2A receptor [2]; [11]
  EC50: 3470 nM
5-HT1A receptor [3]; [12]
  Ki: 350 nM
5-HT2A receptor [4]
  Ki: 1200 nM
Dopamine D2 receptors [5]
  Ki: 490 nM
Dopamine D2 receptors [6]; [13]
  EC50: 328 nM
Dopamine D2 receptors [6]
  Emax: 24.8%
5-HT2A receptor [7]; [14]
  EC50: 966 nM
5-HT2A receptor [7]
  Emax: 13.8%
5-HT1A receptor [8]; [15]
  Emax: 87%
5-HT1A receptor [8]; [16]
  EC50: 1470 nM

## O=C(N[C@H]1CC[C@H](CCN2CCN3c4cccc5scc(c45)CC3C2)CC1)N1CCCCC1 (stereo partly drawn) [Compound I-29, N-(4-(2-(6a,7,9,10-Tetrahydropyrazino[1,2-a]Thieno [4,3,2-De]Quinolin-8 (6H)-Yl)Ethyl) Trans-Cyclohexyl) Piperidine-1-Carboxamide]
Dopamine D2 receptors [1]; [9]
  EC50: 32.2 nM
Dopamine D2 receptors [1]
  Emax: 45.2%
5-HT2A receptor [2]; [10]
  Emax: 21.8%
5-HT2A receptor [2]; [11]
  EC50: 30.2 nM
5-HT1A receptor [3]; [12]
  Ki: 120 nM
5-HT2A receptor [4]
  Ki: 450 nM
Dopamine D2 receptors [5]
  Ki: 180 nM
Dopamine D2 receptors [6]; [13]
  EC50: 102 nM
Dopamine D2 receptors [6]
  Emax: 31.8%
5-HT2A receptor [7]; [14]
  EC50: 299 nM
5-HT2A receptor [7]
  Emax: 8.61%
5-HT1A receptor [8]; [15]
  Emax: 62%
5-HT1A receptor [8]; [16]
  EC50: 1480 nM

## COc1cc2c(cc1OC)C(=O)N(CCCCN1CCN3c4cccc5scc(c45)CC3C1)C2 (stereo not drawn) [Compound I-23, 5,6-Dimethoxy-2-(4-(6a,7,9,10-Tetrahydropyrazino[1,2-a]Thieno [4,3,2-De]Quinolin-8 (6H)-Yl)Butyl) Isoindolin-1-One]
Dopamine D2 receptors [1]; [9]
  EC50: 282 nM
Dopamine D2 receptors [1]
  Emax: 61.9%
5-HT2A receptor [2]; [10]
  Emax: 138%
5-HT2A receptor [2]; [11]
  EC50: 8060 nM
5-HT1A receptor [3]; [12]
  Ki: 4130 nM
5-HT2A receptor [4]
  Ki: 160 nM
Dopamine D2 receptors [5]
  Ki: 750 nM
Dopamine D2 receptors [6]; [13]
  EC50: 130 nM
Dopamine D2 receptors [6]
  Emax: 38.5%
5-HT2A receptor [7]; [14]
  EC50: 245 nM
5-HT2A receptor [7]
  Emax: 18.9%
5-HT1A receptor [8]; [15]
  Emax: 71%
5-HT1A receptor [8]; [16]
  EC50: 6700 nM

## OCCN1CCN2c3cccc4scc(c34)CC2C1 (stereo not drawn) [Compound I-3, 2-(6a,7,9,10-Tetrahydropyrazino[1,2-a]Thieno [4,3,2-De]Quinolin-8 (6H)-Yl) Ethan-1-Ol]
Dopamine D2 receptors [1]
  EC50: 40.7 nM
  Emax: 22.5%
5-HT2A receptor [2]
  EC50: 638 nM
5-HT2A receptor [2]; [10]
  Emax: 90%
5-HT1A receptor [3]
  Ki: 4410 nM
5-HT2A receptor [4]
  Ki: 4130 nM
Dopamine D2 receptors [5]
  Ki: > 10000 nM
Dopamine D2 receptors [6]
  EC50: 189 nM
  Emax: 14.2%
5-HT2A receptor [7]
  EC50: 1520 nM
  Emax: 43.6%
5-HT1A receptor [8]
  EC50: 24200 nM
5-HT1A receptor [8]; [15]
  Emax: 62%

## Fc1ccc(CCN2CCN3c4cccc5scc(c45)CC3C2)cc1 (stereo not drawn) [Compound I-5, 8-(4-Fluorophenylethyl)-6,6a,7,8,9,10-Hexahydropyrazino[1,2-a]Thieno [4,3,2-De]Quinoline]
Dopamine D2 receptors [1]; [9]
  EC50: 193 nM
Dopamine D2 receptors [1]
  Emax: 53.8%
5-HT2A receptor [2]; [10]
  Emax: 27.3%
5-HT2A receptor [2]; read-out: β-arrestin2 BRET EC50
  EC50: 946 nM
5-HT1A receptor [3]; [12]
  Ki: 280 nM
5-HT2A receptor [4]
  Ki: 920 nM
Dopamine D2 receptors [5]
  Ki: 7500 nM
Dopamine D2 receptors [6]; [13]
  EC50: 370 nM
Dopamine D2 receptors [6]
  Emax: 27.2%
5-HT2A receptor [7]
  Emax: 50%
5-HT2A receptor [7]; read-out: Gαq BRET EC50
  EC50: 1100 nM
5-HT1A receptor [8]; [15]
  Emax: 91%
5-HT1A receptor [8]; [16]
  EC50: 3130 nM

## O=c1ccc2ccc(OCCCN3CCN4c5cccc6scc(c56)CC4C3)cc2[nH]1 (stereo not drawn) [Compound I-17, 7-(3-(6a,7,9,10-Tetrahydropyrazino[1,2-a]Thieno [4,3,2-De]Quinolin-8 (6H)-Yl) Propoxy) Quinolin-2 (1H)-One]
Dopamine D2 receptors [1]; [9]
  EC50: 18.5 nM
Dopamine D2 receptors [1]
  Emax: 81.6%
5-HT2A receptor [2]; [10]
  Emax: 92.2%
5-HT2A receptor [2]; [11]
  EC50: 1270 nM
5-HT1A receptor [3]; [12]
  Ki: 340 nM
5-HT2A receptor [4]
  Ki: 750 nM
Dopamine D2 receptors [5]
  Ki: 290 nM
Dopamine D2 receptors [6]; [13]
  EC50: 91.6 nM
Dopamine D2 receptors [6]
  Emax: 66.8%
5-HT2A receptor [7]; [14]
  EC50: 279 nM
5-HT2A receptor [7]
  Emax: 23.4%
5-HT1A receptor [8]; [15]
  Emax: 86%
5-HT1A receptor [8]; [16]
  EC50: 754 nM

## Fc1ccc(-c2cncc(CN3CCN4c5cccc6scc(c56)CC4C3)c2)cc1 (stereo not drawn) [Compound I-8, 8-((5-(4-Fluorophenyl)Pyridin-3-Yl)Methyl)-6,6a,7,8,9,10-Hexahydropyrazino[1,2-a]Thieno [4,3,2-De]Quinoline]
Dopamine D2 receptors [1]; [9]
  EC50: 531 nM
Dopamine D2 receptors [1]
  Emax: 15.9%
5-HT2A receptor [2]; [10]
  Emax: 84.2%
5-HT2A receptor [2]; [11]
  EC50: 1290 nM
5-HT1A receptor [3]; [12]
  Ki: 9850 nM
5-HT2A receptor [4]
  Ki: 1460 nM
Dopamine D2 receptors [5]
  Ki: 440 nM
Dopamine D2 receptors [6]; [13]
  EC50: 371 nM
Dopamine D2 receptors [6]
  Emax: 14.1%
5-HT2A receptor [7]; [14]
  EC50: 4540 nM
5-HT2A receptor [7]
  Emax: 21%
5-HT1A receptor [8]; [15]
  Emax: 53%
5-HT1A receptor [8]; [16]
  EC50: 16300 nM

## CN(C)C(=O)N[C@H]1CC[C@H](CCN2CCN3c4cccc5scc(c45)CC3C2)CC1 (stereo partly drawn) [Compound I-27, 1,1-Dimethyl-3-(4-(2-(6a, 7,9,10-Tetrahydropyrazino[1,2-a]Thieno [4,3,2-De]Quinolin-8 (6H)-Yl)Ethyl) Trans-Cyclohexyl) Urea]
Dopamine D2 receptors [1]; [9]
  EC50: 3.87 nM
Dopamine D2 receptors [1]
  Emax: 73.6%
5-HT2A receptor [2]; [10]
  Emax: 34.7%
5-HT2A receptor [2]; [11]
  EC50: 13.8 nM
5-HT1A receptor [3]; [12]
  Ki: 160 nM
5-HT2A receptor [4]
  Ki: 210 nM
Dopamine D2 receptors [5]
  Ki: 80 nM
Dopamine D2 receptors [6]; [13]
  EC50: 10.2 nM
Dopamine D2 receptors [6]
  Emax: 52.1%
5-HT2A receptor [7]; [14]
  EC50: 158 nM
5-HT2A receptor [7]
  Emax: 9.57%
5-HT1A receptor [8]; [15]
  Emax: 64%
5-HT1A receptor [8]; [16]
  EC50: 164 nM

## CCCN1CCN2c3cccc4scc(c34)CC2C1 (stereo not drawn) [Compound I-2, 8-Propyl-6,6a,7,8,9,10-Hexahydropyrazino[1,2-a]Thieno [4,3,2-De]Quinoline]
Dopamine D2 receptors [1]; [9]
  EC50: 747 nM
Dopamine D2 receptors [1]
  Emax: 12.1%
5-HT2A receptor [2]; [10]
  Emax: 66.3%
5-HT2A receptor [2]; [11]
  EC50: 298 nM
5-HT1A receptor [3]; [12]
  Ki: 3420 nM
5-HT2A receptor [4]
  Ki: 710 nM
Dopamine D2 receptors [5]
  Ki: 380 nM
Dopamine D2 receptors [6]; [13]
  EC50: 19.3 nM
Dopamine D2 receptors [6]
  Emax: 27.6%
5-HT2A receptor [7]; [14]
  EC50: 2.41 nM
5-HT2A receptor [7]
  Emax: 7.6%
5-HT1A receptor [8]; [15]
  Emax: 72%
5-HT1A receptor [8]; [16]
  EC50: 7720 nM
